Columns and labels:
IRE1α-KR43 [1] = target: T1, IRE1α-KR43 (Homo sapiens, UniProt O75460); assay: IRE1α-KR43 RNA cleavage assay with 5′ [32P]-labeled RNA substrate HP21 (kobs, single turnover); type: biochemical; parameters: IRE1α-KR43 comprises the soluble cytoplasmic portion of IRE1α, composed of the kinase and RNase domains plus 43 amino acids of the linker; 6xHis (N, cleaved yes); made in house; host or cells: SF21 insect cells; details: for fold activation of IRE1α-KR43 RNase activity / IRE1α RNase activation (in words): compounds 1 μM, IRE1α-KR43 200 nM; for fold activation of IRE1α-KR43 RNase activity: [32P]-labeled HP21; for IRE1α RNase activation (in words): versus DMSO control or cmp6/cmp7
T1 sequence (O75460 465-977 limits assumed): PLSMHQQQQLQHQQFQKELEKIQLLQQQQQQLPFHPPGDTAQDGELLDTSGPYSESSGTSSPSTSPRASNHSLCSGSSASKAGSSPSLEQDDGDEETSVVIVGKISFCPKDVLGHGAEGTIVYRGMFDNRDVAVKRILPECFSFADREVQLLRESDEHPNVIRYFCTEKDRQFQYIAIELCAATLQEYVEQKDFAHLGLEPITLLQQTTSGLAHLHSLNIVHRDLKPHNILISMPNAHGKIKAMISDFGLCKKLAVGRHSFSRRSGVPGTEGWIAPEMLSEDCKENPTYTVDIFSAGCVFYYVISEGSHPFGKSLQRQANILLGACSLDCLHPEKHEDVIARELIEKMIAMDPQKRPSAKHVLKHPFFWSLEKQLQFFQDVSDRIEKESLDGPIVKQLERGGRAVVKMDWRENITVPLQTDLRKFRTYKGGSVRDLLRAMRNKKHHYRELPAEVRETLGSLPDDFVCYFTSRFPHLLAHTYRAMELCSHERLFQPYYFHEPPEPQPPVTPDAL
Description: To this end, we modified the molecule by substituting urea-linked and variably m- and p-substituted phenyl groups for the benzimidazole of APY29. Diphenyl urea linkers have previously been used successfully in the design of kinase inhibitors ([Dar et al., 2008]; [Dar and Shokat, 2011]; [Korennykh et al., 2012]). In exploring the addition of this chemotype on the APY29 scaffold, we generated a panel of 10 variants (Figure 1B). Each member of the panel was tested in an RNase activity assay using recombinant IRE1α-KR43 and a labeled short hairpin RNA substrate derived from human XBP1 mRNA. IRE1α-KR43 comprises the soluble cytoplasmic portion of IRE1α, composed of the kinase and RNase domains plus 43 amino acids of the linker that bridges the kinase to its transmembrane domain.
Human IRE1α-KR43 with a hexa-histidine (6xHis) tag in its N-terminus was expressed and purified in SF21 cells as described ([Li et al., 2010]). Cells were lysed in buffer containing 20 mM Tris-HCl, pH 7.5, 600 mM NaCl, 2 mM MgCl2, 3 mM imidazole, 10% glycerol, 1% Triton X-100, 3 mM β-mercaptoethanol, COMPlete protease inhibitors (Roche), and PhosSTOP phosphatase inhibitor cocktail (Roche) and passed through an AVESTIN emulsiflex-C3 3× times for complete lysis. The lysate was cleared using centrifugation at 100,000×g. Clear lysate was allowed to incubate on Ni-NTA agarose (Qiagen) beads for 2 hr before being washed 3× times with buffer containing 20 mM Tris-HCl, pH7.5, 600 mM NaCl, 2 mM MgCl2, 30 mM imidazole, 10% glycerol, and 3 mM β-mercaptoethanol. Protein was eluted from the column by raising the imidazole concentration to 250 mM. The eluate was then passed through a HiTrap desalting column (GE Healthcare). Lastly, the 6xHis was cleaved as described ([Li et al., 2010]) and the resulting protein was then loaded onto a HisTrap HP, 5 × 5 ml column to remove the uncleaved protein. The cleaved protein was then loaded on a Mono-S 5/50 GL column (GE Healthcare), and the eluate was then concentrated to 5 mg/ml and loaded on a Superdex 200 HR 10/300 (GE Healthare) column in buffer containing 20 mM Tris-HCl pH 7.5, 250 mM NaCl, 5% Glycerol and 5 mM tris(2-carboxyethyl)phosphine (TCEP). The pure protein solution was aliquoted and stored at −80°C.

[2] = target: T2, GST-PERK kinase domain (580–1077 aa) (Mus musculus, UniProt Q9Z2B5); assay: In vitro GST-PERK kinase assay (eIF2α phosphorylation with γ-[32P]-ATP)
T2 sequence (Q9Z2B5 580-1077): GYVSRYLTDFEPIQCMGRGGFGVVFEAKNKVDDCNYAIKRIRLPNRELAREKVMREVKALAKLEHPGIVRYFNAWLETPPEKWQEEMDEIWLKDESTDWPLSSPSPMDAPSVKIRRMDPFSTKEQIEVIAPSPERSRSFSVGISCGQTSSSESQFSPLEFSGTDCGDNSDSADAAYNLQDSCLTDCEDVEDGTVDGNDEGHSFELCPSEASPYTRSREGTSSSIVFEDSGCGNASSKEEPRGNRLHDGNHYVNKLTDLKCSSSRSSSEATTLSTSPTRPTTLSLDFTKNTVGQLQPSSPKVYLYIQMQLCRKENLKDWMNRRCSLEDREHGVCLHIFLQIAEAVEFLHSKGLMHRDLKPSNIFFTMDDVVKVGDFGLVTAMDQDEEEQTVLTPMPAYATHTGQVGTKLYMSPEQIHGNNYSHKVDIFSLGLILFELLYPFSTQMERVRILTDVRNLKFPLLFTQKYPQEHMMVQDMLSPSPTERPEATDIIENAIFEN

IRE1α-KR43 [3] = target: T1, IRE1α-KR43; assay: FRET-based RNA cleavage assay (fluorescent HP17 substrate) of IRE1α-KR43 RNase activity
HEK293T cells = assay: HEK293T cell viability (CellTiter-Blue, 24 hr); type: cell-based; details: STS dose response + 1 μM GSK PERK inhibitor
Description: HEK293T cells were grown in DMEM (Sigma) complete media containing 10% FBS, 10 units/ml penicillin (Invitrogen), and 10 μg/ml streptomycin (Invitrogen). Cells were plated at a density of 30,000 cells per well in 96-well black plates with clear flat bottoms (Corning, Sigma-Aldrich) 24 hr before the experiment. A 12-point semi-logarithmic dilution series of compounds was made starting at 30 μM not to exceed 0.1% DMSO after final dilution into the growth media. Viability assays were conducted over the course of 24 hr. Cell viability was determined using CellTiter-Blue (Promega) following the manufacturer's instructions. […] Experiments were done in triplicate, and mean values were computed for each data point.

[4] = system: ATF6 transcriptional targets HERPUD1 (HERP1) and DERLIN3 (DERL3); assay: ATF6 target mRNAs HERP1 and DERL3 by RT-PCR in HEK293T cells; type: cell-based; details: IPA 1 μM and 4 μM, Tm
Description: To assess the effects of IPA on the activity of the two other UPR branches, we first examined activation of ATF6. To this end, we monitored mRNA levels by RT-PCR for two ATF6-driven transcriptional target genes, HERP1 and DERL3, in HEK293T cells.
Cells were lysed and total RNA was collected (Total RNA Kit 1, EZ-RNA, EZNA [USA]). PolyA^+ mRNA was reverse transcribed with M-MLV (Invitrogen), and the resulting cDNA was used as a template for PCR amplification across the fragment of XBP1 cDNA containing the intron. Primers used to amplify human XBP1: 5′-[…]-3′ and 5′-[…]-3′. To amplify murine XBP1: 5′-[…]-3′ and 5′-[…]-3′. PCR conditions were as follows: 95°C for 5 min, 95°C for 1 min, 58°C for 30 s, 72°C for 30 s, and 72°C for 5 min, with 20 cycles of amplification. PCR products were resolved on a 2.5% agarose tris-acetate EDTA (TAE) gel. As previously reported, a hybrid amplicon species consisting of unspliced Xbp-1 annealed to spliced Xbp-1 can also be produced through this PCR reaction and was visible as a slower migrating band above the unspliced amplicon. The same cDNA was used as template for PCR of DERLIN-3 and HERPUD1, both ATF6 targets, and GAPDH, which was used as loading control. Primers used included the following: DERLIN-3, 5′-[…]-3′ and 5′-[…]-3′; HERPUD1-1, 5′-[…]-3′ and 5′-[…]-3′; GAPDH, 5′-[…]-3′ and 5′-[…]-3′. […]

[5] = system: IRE1α-GFP in T-REx293 cells; assay: IRE1-GFP foci formation in T-REx293 cells (confocal microscopy); type: cell-based; details: doxycycline-induced IRE1α-GFP
Description: We next used a T-REx293 cell line, containing a genome-integrated doxycycline-inducible IRE1α-GFP fusion gene, to monitor IRE1α oligomerization in vivo ([Li et al., 2010]). In the presence of doxycycline, IRE1α-GFP was expressed and localized to the ER (Figure 2D). […] Furthermore, the foci dissolved by 8 hr of treatment as cells attenuated IRE1α signaling even in the presence of unmitigated ER stress (Figure 2D, upper panels) ([Li et al., 2010]). […] While Tm-induced foci became larger and fewer over time as previously observed, IPA-induced foci remained small and numerous.
T-REx293 cells were split 2 days before imaging onto glass-bottom micro-well dishes (MatTek) at 5 × 10^4 cells/dish. Doxycyclin-containing medium (10 nM doxycycline) was added for 24 hr, withdrawn before imaging and replaced with imaging media (Hank's Balanced Salt Solution [Gibco], 2% FBS, and 5 mM HEPES pH 7.0). Images were acquired on a spinning-disk confocal microscope as described ([Li et al., 2010]).

[6] = target: the molecule itself; assay: cell-based or functional assay
[7] = target: the molecule itself; assay: SEC; GST-PERK purified on GST-Sepharose and Superdex 200 10/300 gel filtration in buffer B (50 mM Tris pH 7.5, 50 mM NaCl, 5 mM MgCl2, 3 mM DTT, 1% glycerol); the paper does not say how the dimer was determined
[8] = compound 20 μM, RNase activity as a function of IRE1α-KR43 concentration

c1cc(Nc2cc(C3CC3)[nH]n2)nc(Nc2ccc3[nH]cnc3c2)n1 [APY29, reference compound]
fold activation of IRE1α-KR43 RNase activity (IRE1α-KR43 [1]): fivefold | IC50 [2]: 0.69 µM | EC50 (IRE1α-KR43 [3]): 5.2 µM

CN[C@@H]1C[C@H]2O[C@@](C)([C@@H]1OC)n1c3ccccc3c3c4c(c5c6ccccc6n2c5c31)C(=O)NC4 [STS, staurosporine, reference compound]
change of cell viability dose response in the presence of 1 μM GSK (HEK293T cells): No change in cell viability was observed

O=C(Nc1ccc(Nc2nccc(Nc3cc(C4CC4)[nH]n3)n2)cc1)Nc1cccc(C(F)(F)F)c1 [cmp1]
fold lower enzyme concentration at ½ kmax, obs versus no activator (IRE1α-KR43 [1]; compound 20 μM): 3 fold | 1/2kmax, obs (IRE1α-KR43 concentration at half-maximal kobs) (IRE1α-KR43 [1]; [8]): 3 µM | Hill coefficient n (IRE1α-KR43 [1]; [8]): 3.8 | fold activation of IRE1α-KR43 RNase activity (IRE1α-KR43 [1]): 10–100 fold | IC50 [2]: 4.5 µM | EC50 (IRE1α-KR43 [3]): 0.95 µM

Cc1ccc(NC(=O)Nc2ccc(Nc3nccc(Nc4cc(C5CC5)[nH]n4)n3)cc2)cc1 [cmp2]
fold activation of IRE1α-KR43 RNase activity (IRE1α-KR43 [1]): 10–100 fold

CCc1ccc(NC(=O)Nc2ccc(Nc3nccc(Nc4cc(C5CC5)[nH]n4)n3)cc2)cc1 [cmp3]
fold activation of IRE1α-KR43 RNase activity (IRE1α-KR43 [1]): 10–100 fold

COc1cccc(NC(=O)Nc2ccc(Nc3nccc(Nc4cc(C5CC5)[nH]n4)n3)cc2)c1 [cmp4]
fold activation of IRE1α-KR43 RNase activity (IRE1α-KR43 [1]): 10–100 fold

COc1ccc(NC(=O)Nc2ccc(Nc3nccc(Nc4cc(C5CC5)[nH]n4)n3)cc2)cc1 [cmp5]
fold activation of IRE1α-KR43 RNase activity (IRE1α-KR43 [1]): 10–100 fold

O=C(Nc1ccc(I)cc1)Nc1ccc(Nc2nccc(Nc3cc(C4CC4)[nH]n3)n2)cc1 [cmp7]
fold activation of IRE1α-KR43 RNase activity (IRE1α-KR43 [1]): 900 fold

O=C(Nc1ccc(Br)cc1)Nc1ccc(Nc2nccc(Nc3cc(C4CC4)[nH]n3)n2)cc1 [cmp8]
IRE1α RNase activation (in words) (IRE1α-KR43 [1]): decreased activities

CC(C)c1ccc(NC(=O)Nc2ccc(Nc3nccc(Nc4cc(C5CC5)[nH]n4)n3)cc2)cc1 [cmp9]
IRE1α RNase activation (in words) (IRE1α-KR43 [1]): decreased activities

CC(C)(C)c1ccc(NC(=O)Nc2ccc(Nc3nccc(Nc4cc(C5CC5)[nH]n4)n3)cc2)cc1 [cmp10]
IRE1α RNase activation (in words) (IRE1α-KR43 [1]): decreased activities

tunicamycin [Tm, reference compound]
induction of ATF6 target genes HERP1 and DERL3 [4]: induced the expression of these two genes | IRE1α-GFP foci formation [5]: rapidly induced the relocalization of IRE1α-GFP into discrete foci

B1: PERK cytosolic domain (535–1093 Δ660–868) (domain or fragment, human, UniProt Q9NZJ5 535-1093, looked up)
chain: ATTFIVRRLFHPHPHRQRKESETQCQTENKYDSVSGEANDSSWNDIKNSGYISRYLTDFEPIQCLGRGGFGVVFEAKNKVDDCNYAIKRIRLPNRELAREKVMREVKALAKLEHPGIVRYFNAWLKNTTEKLQPSSPKVYLYIQMQLCRKENLKDWMNGRCTIEERERSVCLHIFLQIAEAVEFLHSKGLMHRDLKPSNIFFTMDDVVKVGDFGLVTAMDQDEEEQTVLTPMPAYARHTGQVGTKLYMSPEQIHGNSYSHKVDIFSLGLILFELLYPFSTQMERVRTLTDVRNLKFPPLFTQKYPCEYVMVQDMLSPSPMERPEAINIIENAVFEDLDFPGKTVLRQRSR
rate of eIF2α phosphorylation by the PERK cytoplasmic domain against IPA concentration, fold change normalised to DMSO control; greatest activation at 500 nM IPA [6]: 3.3 fold

B2: GST-PERK kinase domain (580–1077 aa) (domain or fragment, murine, UniProt Q9Z2B5 580-1077, looked up)
chain: GYVSRYLTDFEPIQCMGRGGFGVVFEAKNKVDDCNYAIKRIRLPNRELAREKVMREVKALAKLEHPGIVRYFNAWLETPPEKWQEEMDEIWLKDESTDWPLSSPSPMDAPSVKIRRMDPFSTKEQIEVIAPSPERSRSFSVGISCGQTSSSESQFSPLEFSGTDCGDNSDSADAAYNLQDSCLTDCEDVEDGTVDGNDEGHSFELCPSEASPYTRSREGTSSSIVFEDSGCGNASSKEEPRGNRLHDGNHYVNKLTDLKCSSSRSSSEATTLSTSPTRPTTLSLDFTKNTVGQLQPSSPKVYLYIQMQLCRKENLKDWMNRRCSLEDREHGVCLHIFLQIAEAVEFLHSKGLMHRDLKPSNIFFTMDDVVKVGDFGLVTAMDQDEEEQTVLTPMPAYATHTGQVGTKLYMSPEQIHGNNYSHKVDIFSLGLILFELLYPFSTQMERVRILTDVRNLKFPLLFTQKYPQEHMMVQDMLSPSPTERPEATDIIENAIFEN
notes: PERK, murine, cytosolic kinase domain, residues 580–1077; The dimer may therefore be held by GST; also called PERK-GST fusion protein; GST-PERK fusion protein; source: E. coli BL21DE3 RIPL, purified (GST-Sepharose, Superdex 200 10/300); not shown: GST, N-terminal, kept
stoichiometry N [7]: 2

— article PMC4436593, “Endoplasmic reticulum stress-independent activation of unfolded protein response kinases by a small molecule ATP-mimic” (eLife, 2015)
